Test results reported in patent US20230233569A1 (Revolution Medicines, Inc., priority 2020, published 2023).

Columns and labels:
[1] = test system: Capan-1 (K-Ras G12V); test: CellTiter-Glo cell viability assay, 5-day treatment; format: cell-based; settings: Homo sapiens, CAPAN-1, 120 h, 5-day treatment; read-out: Capan-1 Cell Viability assay data (K-Ras G12V, IC50)
Procedure, shortened: (§1)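 Viability is read as luminescence on day 5 after direct compound addition to plated cells, following about 30 minutes' room-temperature equilibration. Each signal is scaled to mean DMSO as 100%.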

[2] = test system: NCI-H358 (K-Ras G12C); test: as above; format: cell-based; settings: Homo sapiens, NCI-H358, 120 h, 5-day treatment; read-out: H358 Cell Viability assay data (K-Ras G12C, IC50)
Procedure, shortened: as §1

[3] = target: KRAS G12C (Homo sapiens, UniProt P01116+P62937, G12C); test: Disruption of BRAF RBD interaction with Ras (FRET / MOA assay, with Cyclophilin A); format: biochemical; settings: read-out: KRAS G12C FRET data, IC50
Procedure, shortened: (§2)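 Here, compound titrations (ten points, factor 3, from 30 μM final) act on nucleotide-bound K-Ras and Cyclophilin A, and ternary complex formation disrupts the RAF RBD interaction.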

[4] = target: KRAS G12D (Homo sapiens, UniProt P01116+P62937, G12D); test: as above; format: biochemical; settings: read-out: KRAS G12D FRET data, IC50
Procedure, shortened: as §2

[5] = target: KRAS G12S (Homo sapiens, UniProt P01116+P62937, G12S); test: as above; format: biochemical; settings: read-out: KRAS G12S FRET data, IC50
Procedure, shortened: as §2

[6] = target: KRAS G12V (Homo sapiens, UniProt P01116+P62937, G12V); test: as above; format: biochemical; settings: KRAS G12V; read-out: KRAS G12V FRET data IC50
Procedure, shortened: as §2

[7] = target: KRAS G13C (Homo sapiens, UniProt P01116+P62937, G13C); test: as above; format: biochemical; settings: read-out: KRAS G13C FRET data, IC50
Procedure, shortened: as §2

[8] = target: KRAS G13D (Homo sapiens, UniProt P01116+P62937, G13D); test: as above; format: biochemical; settings: KRAS G13D; read-out: KRAS G13D FRET data IC50
Procedure, shortened: as §2

[9] = target: KRAS WT (Homo sapiens, UniProt P01116+P62937); test: as above; format: biochemical; settings: KRAS WT; read-out: KRAS WT FRET data IC50
Procedure, shortened: as §2

[10] = target: NRAS G12C (Homo sapiens, UniProt P01111+P62937, G12C); test: as above; format: biochemical; settings: NRAS G12C; read-out: NRAS G12C FRET data IC50
[11] = target: KRAS Q61H (Homo sapiens, UniProt P01116+P62937, Q61H); test: as above; format: biochemical; settings: KRAS Q61H; read-out: KRAS Q61H FRET data IC50
Procedure, shortened: (§3)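 IC50 reflects compound-driven Ras:Cyclophilin A ternary complex displacing BRAF RBD, read as lowered TR-FRET ratio relative to DMSO after Eu anti-His (10 nM) and APC anti-GST (50 nM) detection for 1.5 h. Prior incubation 3 h, 25° C, with 12.5 nM GMPPNP-loaded Ras, 50 nM BRAF RBD, 25 μM Cyclophilin A; top compound 30 μM.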

[12] = target: NRAS Q61K (Homo sapiens, UniProt P01111+P62937, Q61K); test: as above; format: biochemical; settings: NRAS Q61K; read-out: NRAS Q61K FRET data IC50
Procedure, shortened: as §3

[13] = target: NRAS Q61R (Homo sapiens, UniProt P01111+P62937, Q61R); test: as above; format: biochemical; settings: NRAS Q61R; read-out: NRAS Q61R FRET data IC50
Procedure, shortened: as §3

[14] = target: NRAS WT (Homo sapiens, UniProt P01111+P62937); test: as above; format: biochemical; settings: NRAS WT; read-out: NRAS WT FRET data IC50
Procedure, shortened: as §3

Sequence of KRAS WT (P01116 1-169 isoform P01116-2 limits assumed): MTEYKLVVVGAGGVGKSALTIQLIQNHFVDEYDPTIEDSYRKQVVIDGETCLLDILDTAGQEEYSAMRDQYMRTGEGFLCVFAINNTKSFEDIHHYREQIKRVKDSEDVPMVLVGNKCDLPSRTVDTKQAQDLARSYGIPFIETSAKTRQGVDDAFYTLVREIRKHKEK
Sequence of KRAS WT (P62937 whole entry): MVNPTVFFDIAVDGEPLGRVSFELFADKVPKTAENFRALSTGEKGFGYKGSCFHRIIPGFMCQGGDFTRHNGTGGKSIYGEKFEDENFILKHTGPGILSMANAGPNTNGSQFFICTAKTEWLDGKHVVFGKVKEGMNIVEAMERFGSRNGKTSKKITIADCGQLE
Sequence of NRAS Q61R (P01111 whole entry Q61R): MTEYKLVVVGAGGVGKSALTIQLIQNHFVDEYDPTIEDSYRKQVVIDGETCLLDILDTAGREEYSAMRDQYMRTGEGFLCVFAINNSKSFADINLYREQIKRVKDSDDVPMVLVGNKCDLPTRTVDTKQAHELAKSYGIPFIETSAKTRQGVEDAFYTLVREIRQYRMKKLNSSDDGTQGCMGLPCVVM
Sequence of NRAS Q61R (P62937 whole entry): as the sequence (P62937 whole entry) above
Sequence of KRAS G12S (P01116 1-169 isoform P01116-2 G12S limits assumed): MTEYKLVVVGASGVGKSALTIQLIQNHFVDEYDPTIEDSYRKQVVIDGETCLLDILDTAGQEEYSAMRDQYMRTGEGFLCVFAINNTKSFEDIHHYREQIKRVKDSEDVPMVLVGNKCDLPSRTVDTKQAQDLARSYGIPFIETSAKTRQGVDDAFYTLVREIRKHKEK
Sequence of KRAS G12S (P62937 whole entry): as the sequence (P62937 whole entry) above
Sequence of KRAS G13D (P01116 1-169 isoform P01116-2 G13D limits assumed): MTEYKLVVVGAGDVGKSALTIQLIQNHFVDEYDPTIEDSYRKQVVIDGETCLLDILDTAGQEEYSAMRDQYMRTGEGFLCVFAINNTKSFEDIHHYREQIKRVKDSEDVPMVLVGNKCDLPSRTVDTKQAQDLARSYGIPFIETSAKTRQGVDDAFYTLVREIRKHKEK
Sequence of KRAS G13D (P62937 whole entry): as the sequence (P62937 whole entry) above
Sequence of NRAS G12C (P01111 whole entry G12C): as the sequence (P01111 whole entry Q61R) above, with G12C, R61Q counted along it
Sequence of NRAS G12C (P62937 whole entry): as the sequence (P62937 whole entry) above
Sequence of KRAS G12C (P01116 1-169 isoform P01116-2 G12C): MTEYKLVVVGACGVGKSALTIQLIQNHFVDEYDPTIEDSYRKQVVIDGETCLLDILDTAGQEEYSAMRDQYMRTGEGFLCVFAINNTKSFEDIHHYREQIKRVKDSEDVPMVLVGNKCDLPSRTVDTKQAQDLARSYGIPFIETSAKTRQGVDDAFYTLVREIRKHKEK
Sequence of KRAS G12C (P62937 whole entry): as the sequence (P62937 whole entry) above
Sequence of NRAS Q61K (P01111 whole entry Q61K): as the sequence (P01111 whole entry Q61R) above, with R61K counted along it
Sequence of NRAS Q61K (P62937 whole entry): as the sequence (P62937 whole entry) above
Sequence of NRAS WT (P01111 whole entry): as the sequence (P01111 whole entry Q61R) above, with R61Q counted along it
Sequence of NRAS WT (P62937 whole entry): as the sequence (P62937 whole entry) above
Sequence of KRAS G12D (P01116 1-169 isoform P01116-2 G12D limits assumed): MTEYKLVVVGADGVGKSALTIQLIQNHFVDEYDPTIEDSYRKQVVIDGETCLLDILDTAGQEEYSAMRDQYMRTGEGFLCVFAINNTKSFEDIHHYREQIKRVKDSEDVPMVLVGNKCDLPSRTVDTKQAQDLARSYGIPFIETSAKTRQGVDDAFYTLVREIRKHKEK
Sequence of KRAS G12D (P62937 whole entry): as the sequence (P62937 whole entry) above
Sequence of KRAS Q61H (P01116 1-169 isoform P01116-2 Q61H limits assumed): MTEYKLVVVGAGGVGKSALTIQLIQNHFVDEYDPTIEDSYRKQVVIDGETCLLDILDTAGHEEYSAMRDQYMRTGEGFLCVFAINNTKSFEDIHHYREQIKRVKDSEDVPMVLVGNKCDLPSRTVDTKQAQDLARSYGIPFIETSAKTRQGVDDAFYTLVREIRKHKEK
Sequence of KRAS Q61H (P62937 whole entry): as the sequence (P62937 whole entry) above
Sequence of KRAS G12V (P01116 1-169 isoform P01116-2 G12V limits assumed): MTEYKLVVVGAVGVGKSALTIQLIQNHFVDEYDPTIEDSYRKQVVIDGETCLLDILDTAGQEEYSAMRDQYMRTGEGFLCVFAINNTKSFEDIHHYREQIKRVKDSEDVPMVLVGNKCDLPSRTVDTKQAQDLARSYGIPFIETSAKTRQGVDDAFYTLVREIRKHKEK
Sequence of KRAS G12V (P62937 whole entry): as the sequence (P62937 whole entry) above
Sequence of KRAS G13C (P01116 1-169 isoform P01116-2 G13C): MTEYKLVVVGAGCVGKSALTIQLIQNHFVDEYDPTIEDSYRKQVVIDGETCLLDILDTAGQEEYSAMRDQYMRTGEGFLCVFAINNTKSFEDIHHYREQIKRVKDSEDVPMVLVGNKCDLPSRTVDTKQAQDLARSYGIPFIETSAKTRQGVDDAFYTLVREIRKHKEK
Sequence of KRAS G13C (P62937 whole entry): as the sequence (P62937 whole entry) above

| SMILES | IC50 [1] [nM] | IC50 [2] [nM] | IC50 [3] [nM] | IC50 [4] [nM] | IC50 [5] [nM] | IC50 [6] [nM] | IC50 [7] [nM] | IC50 [8] [nM] | IC50 [9] [nM] | IC50 [10] [nM] | IC50 [11] [nM] | IC50 [12] [nM] | IC50 [13] [nM] | IC50 [14] [nM] |
| --- | --- | --- | --- | --- | --- | --- | --- | --- | --- | --- | --- | --- | --- | --- |
| CCn1c(-c2cccnc2[C@H](C)OC)c2c3cc(ccc31)-c1cc(O)cc(c1)C[C@H](NC(=O)[C@H](C(C)C)N(C)C(=O)[C@@H]1CCN[C@@H]1c1ccccc1)C(=O)N1CCC[C@H](N1)C(=O)OCC(C)(C)C2 (atropisomer, axis not shown) [Example A605] | 100 to 1000 | 10 to 100 | 10 to 100 | 10 to 100 | 10 to 100 | 10 to 100 | 10 to 100 | 10 to 100 | 10 to 100 | 10 to 100 | < 10 | 100 to 1000 | 100 to 1000 | 10 to 100 |
| CCn1c(-c2cccnc2[C@H](C)OC)c2c3cc(ccc31)-c1csc(n1)C[C@H](NC(=O)[C@H](C(C)C)N(C)C(=O)N1CCN(C(=O)C3COC3)CC1)C(=O)N1CCC[C@H](N1)C(=O)OCC(C)(C)C2 (atropisomer, axis not shown) [Example A606] | 10 to 100 | < 10 | 10 to 100 | 100 to 1000 | 10 to 100 | 100 to 1000 | 100 to 1000 | 100 to 1000 | 10 to 100 | 10 to 100 | 10 to 100 | 10 to 100 | 10 to 100 | 10 to 100 |
| CCn1c(-c2cccnc2[C@H](C)OC)c2c3cc(ccc31)-c1csc(n1)C[C@H](NC(=O)[C@H](C(C)C)N(C)C(=O)N1CC(C3CN(C)C3)C1)C(=O)N1CCC[C@H](N1)C(=O)OCC(C)(C)C2 (atropisomer, axis not shown) [Example A608] | 10 to 100 | 100 to 1000 | 10 to 100 | 100 to 1000 | 100 to 1000 | 100 to 1000 | 100 to 1000 | 100 to 1000 | 100 to 1000 | 10 to 100 | 10 to 100 | 10 to 100 | 100 to 1000 | 100 to 1000 |
| CCn1c(-c2cccnc2[C@H](C)OC)c2c3cc(ccc31)-c1csc(n1)C[C@H](NC(=O)[C@H](C(C)C)N(C)C(=O)N1CC(C(C)(C)OC)C1)C(=O)N1CCC[C@H](N1)C(=O)OCC(C)(C)C2 (atropisomer, axis not shown) [Example A614] | 10 to 100 | 10 to 100 | 10 to 100 | 100 to 1000 | 100 to 1000 | 100 to 1000 | 100 to 1000 | 100 to 1000 | 100 to 1000 | 10 to 100 | 10 to 100 | 10 to 100 | 100 to 1000 | 100 to 1000 |
| CCn1c(-c2cccnc2[C@H](C)OC)c2c3cc(ccc31)-c1csc(n1)C[C@H](NC(=O)[C@H](C(C)C)N(C)C(=O)N(C)C)C(=O)N1CCC[C@H](N1)C(=O)OCC(C)(C)C2 (racemic) [Example A136] | 10 to 100 | < 10 | 10 to 100 | 100 to 1000 | 100 to 1000 | 100 to 1000 | 100 to 1000 | 100 to 1000 | 100 to 1000 | 10 to 100 | 10 to 100 | 10 to 100 | 10 to 100 | 10 to 100 |
| CCn1c(-c2cccnc2[C@H](C)OC)c2c3cc(ccc31)-c1cc(O)cc(c1)C[C@H](NC(=O)[C@H](C(C)C)N(C)C(=O)C1(C#N)CC1)C(=O)N1CCC[C@H](N1)C(=O)OCC(C)(C)C2 (racemic) [Example A159] | 10 to 100 | < 10 | 10 to 100 | 10 to 100 | 10 to 100 | 10 to 100 | 10 to 100 | 10 to 100 | 10 to 100 | 10 to 100 | < 10 | 10 to 100 | 10 to 100 | 10 to 100 |
| CCn1c(-c2cccnc2[C@H](C)OC)c2c3cc(ccc31)-c1csc(n1)C[C@H](NC(=O)[C@H](C(C)C)N(C)C(=O)N1CC(N(C)C)C1)C(=O)N1CCC[C@H](N1)C(=O)OCC(C)(C)C2 (racemic) [Example A170] | 10 to 100 | 10 to 100 | 100 to 1000 | 1000 to 10000 | 100 to 1000 | 100 to 1000 | 100 to 1000 | 100 to 1000 | 100 to 1000 | 100 to 1000 | 100 to 1000 | 10 to 100 | 100 to 1000 | 100 to 1000 |
| CCn1c(-c2cccnc2[C@H](C)OC)c2c3cc(ccc31)-c1cc(O)cc(c1)C[C@H](NC(=O)[C@H](C(C)C)N(C)C(=O)[C@H]1C[C@@H]1O)C(=O)N1CCC[C@H](N1)C(=O)OCC(C)(C)C2 (single isomer, unassigned) [Example A346] | 100 to 1000 | 100 to 1000 | 10 to 100 | 100 to 1000 | 100 to 1000 | 100 to 1000 | 10 to 100 | 100 to 1000 | 10 to 100 | 10 to 100 | 10 to 100 | 100 to 1000 | 100 to 1000 | 10 to 100 |
| CCn1c(-c2cc(N3CCN(C)CC3)cnc2[C@H](C)OC)c2c3cc(ccc31)-c1csc(n1)C[C@H](NC(=O)[C@H](C(C)C)N(C)C(=O)[C@H]1CCNC1=O)C(=O)N1CCC[C@H](N1)C(=O)OCC(C)(C)C2 (single isomer, unassigned) [Example A449] | 100 to 1000 | 100 to 1000 | 100 to 1000 | 1000 to 10000 | 1000 to 10000 | 1000 to 10000 | 100 to 1000 | 1000 to 10000 | 100 to 1000 | 100 to 1000 | 100 to 1000 | 100 to 1000 | 100 to 1000 | 100 to 1000 |
| CCn1c(-c2cccnc2[C@H](C)OC)c2c3cc(ccc31)-c1csc(n1)C[C@H](NC(=O)[C@H](C(C)C)N(C)C(=O)N1CC[C@]3(CCN(C)C3=O)C1)C(=O)N1CCC[C@H](N1)C(=O)OCC(C)(C)C2 (single isomer, unassigned) [Example A461] | 100 to 1000 | 100 to 1000 | 100 to 1000 | 1000 to 10000 | 1000 to 10000 | 1000 to 10000 | 1000 to 10000 | 1000 to 10000 | 100 to 1000 | 100 to 1000 | 100 to 1000 | 100 to 1000 | 100 to 1000 | 1000 to 10000 |
| CCn1c(-c2cccnc2[C@H](C)OC)c2c3cc(ccc31)-c1csc(n1)C[C@H](NC(=O)[C@H](C(C)C)N(C)C(=O)N1CC([C@@H](C)CO)C1)C(=O)N1CCC[C@H](N1)C(=O)OCC(C)(C)C2 (single isomer, unassigned) [Example A487] | 10 to 100 | < 10 | 10 to 100 | 100 to 1000 | 100 to 1000 | 10 to 100 | 100 to 1000 | 100 to 1000 | 10 to 100 | 10 to 100 | 10 to 100 | 10 to 100 | 10 to 100 | 10 to 100 |
